Patent publication US8329755B2, “Methods for treating retroviral infections” (Roche Palo Alto LLC, priority 2004, dated 2012)

Row | melting point | SMILES
1 | 126.8 to 127.7 °C | O=C(Cc1ccc(Cl)c(Oc2cccc(Cl)c2)c1)Nc1ccccc1 [Compound I-192, 2-[4-Chloro-3-(3-chloro-phenoxy)-phenyl]-N-phenyl-acetamide]
2 | 165 to 166.6 °C | N#Cc1cc(Cl)cc(Oc2c(Br)ccc(CC(=O)Nc3ccc(S(N)(=O)=O)cc3Cl)c2F)c1 [Compound I-109, 2-[4-Bromo-3-(3-chloro-5-cyano-phenoxy)-2-fluoro-phenyl]-N-(2-chloro-4-sulfamoyl-phenyl)-acetamide]
3 | 171.7 to 172.6 °C | Cc1cc(S(=O)(=O)NC2CCOCC2)ccc1NC(=O)Cc1ccc(C)c(Oc2cc(Cl)cc(C#N)c2)c1 [Compound I-128, 2-[3-(3-Chloro-5-cyano-phenoxy)-4-methyl-phenyl]-N-[2-methyl-4-(tetrahydro-pyran-4-ylsulfamoyl)-phenyl]-acetamide]
4 | 177 to 181 °C | Cc1cc(S(=O)(=O)NCCN2CCOCC2)ccc1NC(=O)Cc1ccc(C)c(Oc2cc(Cl)cc(C#N)c2)c1 [Compound I-118, 2-[3-(3-Chloro-5-cyano-phenoxy)-4-methyl-phenyl]-N-[2-methyl-4-(2-morpholin-4-yl-ethylsulfamoyl)-phenyl]-acetamide]
5 | 110 to 111.5 °C | CCc1ccc(CC(=O)Nc2ccccc2Cl)cc1Oc1cc(C#N)cc(C#N)c1Cl [Compound I-60, 2-[3-(2-Chloro-3,5-dicyano-phenoxy)-4-ethyl-phenyl]-N-(2-chloro-phenyl)-acetamide]
6 | 183.2 to 185.5 °C | COCC(=O)N(C)S(=O)(=O)c1ccc(NC(=O)Cc2ccc(Cl)c(Oc3cc(Cl)cc(C#N)c3)c2F)c(Cl)c1 [Compound I-171, 2-[4-Chloro-3-(3-chloro-5-cyano-phenoxy)-2-fluoro-phenyl]-N-{2-chloro-4-[(2-methoxy-acetyl)-methyl-sulfamoyl]-phenyl}-acetamide]
7 | 186.3 to 189.7 °C | COc1ccc(CC(=O)Nc2ccc(S(N)(=O)=O)cc2Cl)cc1Oc1cc(Cl)cc(C#N)c1 [Compound I-64, 2-[3-(3-Chloro-5-cyano-phenoxy)-4-methoxy-phenyl]-N-(2-chloro-4-sulfamoyl-phenyl)-acetamide]
8 | 229.6 to 231.1 °C | Cc1ccc(C#N)cc1C(=O)c1cc(CC(=O)Nc2ccc(S(N)(=O)=O)cc2)ccc1C [Compound I-266, 2-[3-(5-Cyano-2-methyl-benzoyl)-4-methyl-phenyl]-N-(4-sulfamoyl-phenyl)-acetamide]
9 | 144 to 147 °C | N#Cc1cc(Oc2c(F)c(CC(=O)Nc3ccc(S(N)(=O)=O)cc3)cc(Br)c2Br)cc(C(F)F)c1 [Compound I-114, 2-[4,5-Dibromo-3-(3-cyano-5-difluoromethyl-phenoxy)-2-fluoro-phenyl]-N-(4-sulfamoyl-phenyl)-acetamide]
10 | 222.5 to 225 °C | CCc1ccc(CC(=O)Nc2ccc(S(N)(=O)=O)cc2)cc1Oc1c(Cl)cccc1Cl [Compound I-20, 2-[3-(2,6-Dichloro-phenoxy)-4-ethyl-phenyl]-N-(4-sulfamoyl-phenyl)-acetamide]
11 | 195.1 to 197.7 °C | Cc1cc(S(=O)(=O)NC2CCC(O)CC2)ccc1NC(=O)Cc1ccc(C)c(Oc2cc(Cl)cc(C#N)c2)c1 (stereo not drawn) [Compound I-121, 2-[3-(3-Chloro-5-cyano-phenoxy)-4-methyl-phenyl]-N-[4-(4-hydroxy-cyclohexylsulfamoyl)-2-methyl-phenyl]-acetamide]
12 | 180 to 181.4 °C | Cc1cc(NS(C)(=O)=O)ccc1NC(=O)Cc1ccc(C)c(Oc2cc(Cl)cc(C#N)c2)c1 [Compound I-237, 2-[3-(3-Chloro-5-cyano-phenoxy)-4-methyl-phenyl]-N-(4-methanesulfonylamino-2-methyl-phenyl)-acetamide]
13 | 182.5 to 184.6 °C | Cc1cc(N2CCCS2(=O)=O)ccc1NC(=O)Cc1ccc(C)c(Oc2cc(Cl)cc(C#N)c2)c1 [Compound I-170, 2-[3-(3-Chloro-5-cyano-phenoxy)-4-methyl-phenyl]-N-[4-(1,1-dioxo-1λ^6-isothiazolidin-2-yl)-2-methyl-phenyl]-acetamide]
14 | 194 to 197.8 °C | COc1ccc(CC(=O)Nc2ccccc2Cl)cc1Oc1cc(C#N)ccc1Cl [Compound I-62, 2-[3-(2-Chloro-5-cyano-phenoxy)-4-methoxy-phenyl]-N-(2-chloro-phenyl)-acetamide]
15 | 74.3 to 76.5 °C | Cc1cc(S(=O)(=O)CCC(=O)O)ccc1NC(=O)Cc1ccc(C)c(Oc2cc(Cl)cc(C#N)c2)c1 [Compound I-125, 3-(4-{2-[3-(3-Chloro-5-cyano-phenoxy)-4-methyl-phenyl]-acetylamino}-3-methyl-benzenesulfonyl)-propionic acid]
16 | 207 to 209.9 °C | CCc1ccc(CC(=O)Nc2ccc(S(N)(=O)=O)cc2C)cc1Oc1cc(Br)cc(F)c1Cl [Compound I-40, 2-[3-(5-Bromo-2-chloro-3-fluoro-phenoxy)-4-ethyl-phenyl]-N-(2-methyl-4-sulfamoyl-phenyl)-acetamide]
17 | 199.3 to 203 °C | COCCC(=O)N(C)S(=O)(=O)c1ccc(NC(=O)Cc2ccc(Cl)c(Oc3cc(Cl)cc(C#N)c3)c2F)c(Cl)c1 [Compound I-172, 2-[4-Chloro-3-(3-chloro-5-cyano-phenoxy)-2-fluoro-phenyl]-N-{2-chloro-4-[(3-methoxy-propionyl)-methyl-sulfamoyl]-phenyl}-acetamide]
18 | 181.3 to 182.1 °C | Cc1cc(N2CC[S+]([O-])CC2)ccc1NC(=O)Cc1ccc(C)c(Oc2cc(Cl)cc(C#N)c2)c1 [Compound I-160, 2-[3-(3-Chloro-5-cyano-phenoxy)-4-methyl-phenyl]-N-[2-methyl-4-(1-oxo-1λ^4-thiomorpholin-4-yl)-phenyl]-acetamide]

Row | melting point | SMILES
19 | 228.9 to 230.6 °C | Cc1ccc(CC(=O)Nc2ccc(S(N)(=O)=O)cc2Cl)c(F)c1Oc1cc(Cl)cc(C#N)c1 [Compound I-83, 2-[3-(3-Chloro-5-cyano-phenoxy)-2-fluoro-4-methyl-phenyl]-N-(2-chloro-4-sulfamoyl-phenyl)-acetamide]
20 | 170.1 to 173.2 °C | Cc1cc(S(N)(=O)=O)ccc1NC(=O)Cc1ccc(Cl)c(Oc2cc(C#N)cc(C#CCO)c2)c1F [Compound I-186, 2-{4-Chloro-3-[3-cyano-5-(3-hydroxy-prop-1-ynyl)-phenoxy]-2-fluoro-phenyl}-N-(2-methyl-4-sulfamoyl-phenyl)-acetamide]
21 | 200.3 to 201.1 °C | Cc1cc(CC(=O)Nc2ccc(S(N)(=O)=O)cc2C)cc(Oc2cc(C#N)ccc2Cl)c1 [Compound I-147, 2-[3-(2-Chloro-5-cyano-phenoxy)-5-methyl-phenyl]-N-(2-methyl-4-sulfamoyl-phenyl)-acetamide]
22 | 158.8 to 162 °C | CCC(=O)NS(=O)(=O)c1ccc(NC(=O)Cc2ccc(C)c(Oc3cc(Cl)cc(C#N)c3)c2F)c(Cl)c1.[Na]
23 | 195.6 to 197 °C | CC(C)CCC(=O)NS(=O)(=O)c1ccc(NC(=O)Cc2ccc(Cl)c(Oc3cc(Cl)cc(C#N)c3)c2F)c(Cl)c1.[Na]
24 | 169 to 180.3 °C | Cc1cc(S(=O)(=O)NC(=O)[C@@H](N)C(C)C)ccc1NC(=O)Cc1ccc(Cl)c(Oc2cc(Cl)cc(C#N)c2)c1F.Cl
25 | 218.3 to 221.4 °C | COc1ccc(CC(=O)Nc2ccc(S(N)(=O)=O)cc2)cc1Oc1cc(Cl)cc(C#N)c1 [Compound I-57, 2-[3-(3-Chloro-5-cyano-phenoxy)-4-methoxy-phenyl]-N-(4-sulfamoyl-phenyl)-acetamide]
26 | 159.3 to 163.4 °C | CC(C)CC(=O)NS(=O)(=O)c1ccc(NC(=O)Cc2ccc(Cl)c(Oc3cc(Cl)cc(C#N)c3)c2F)c(Cl)c1.[Na]
27 | 170.7 to 172.4 °C | CCc1ccc(CC(=O)Nc2ccc(S(N)(=O)=O)cc2)cc1Oc1cc(Cl)cc(C#N)c1 [Compound I-45, 2-[3-(3-Chloro-5-cyano-phenoxy)-4-ethyl-phenyl]-N-(4-sulfamoyl-phenyl)-acetamide]
28 | 216.1 to 221.3 °C | CCc1ccc(CC(=O)Nc2ccc(S(N)(=O)=O)cc2)cc1Oc1cc(Cl)cc(Br)c1 [Compound I-22, 2-[3-(3-Bromo-5-chloro-phenoxy)-4-ethyl-phenyl]-N-(4-sulfamoyl-phenyl)-acetamide]
29 | 167.9 to 170.5 °C | CCc1ccc(CC(=O)Nc2ccc(S(N)(=O)=O)cc2)cc1Oc1cc(C#N)cc(F)c1Cl [Compound I-49, 2-[3-(2-Chloro-5-cyano-3-fluoro-phenoxy)-4-ethyl-phenyl]-N-(4-sulfamoyl-phenyl)-acetamide]
30 | 213.9 to 214.2 °C | COc1ccc(CC(=O)Nc2ccc(S(N)(=O)=O)cc2)cc1Oc1cc(C#N)cc(C(F)F)c1 [Compound I-92, 2-[3-(3-Cyano-5-difluoromethyl-phenoxy)-4-methoxy-phenyl]-N-(4-sulfamoyl-phenyl)-acetamide]
31 | 199.3 to 199.6 °C | Cl.N#Cc1cc(Cl)cc(Oc2c(Cl)ccc(CC(=O)Nc3ccc(S(=O)(=O)NC(=O)CCN)cc3Cl)c2F)c1
32 | 198.1 to 202.6 °C | CCc1ccc(CC(=O)Nc2ccc(S(N)(=O)=O)cc2)cc1Oc1cc(Cl)ccc1C#N [Compound I-17, 2-[3-(5-Chloro-2-cyano-phenoxy)-4-ethyl-phenyl]-N-(4-sulfamoyl-phenyl)-acetamide]
33 | 196.4 to 198.7 °C | N#Cc1cccc(Oc2cc(CC(=O)Nc3ccc(S(N)(=O)=O)cc3)cc3ccoc23)c1 [Compound I-144, 2-[7-(3-Cyano-phenoxy)-benzofuran-5-yl]-N-(4-sulfamoyl-phenyl)-acetamide]
34 | 259 to 261 °C | NS(=O)(=O)c1ccc(NC(=O)Cc2cc3c(c(C(=O)c4ccc(Cl)cc4)c2)OCC3)cc1 [Compound I-241, 2-[7-(4-Chloro-benzoyl)-2,3-dihydro-benzofuran-5-yl]-N-(4-sulfamoyl-phenyl)-acetamide]
35 | 183.9 to 185.1 °C | Cc1cc(C#N)cc(C)c1Oc1cc(CC(=O)Nc2ccccc2Cl)ccc1Cl [Compound I-68, 2-[4-Chloro-3-(4-cyano-2,6-dimethyl-phenoxy)-phenyl]-N-(2-chloro-phenyl)-acetamide]
36 | 146.5 to 147.6 °C | CCc1ccc(CC(=O)Nc2ccccc2Cl)cc1Oc1cc(Cl)cc(Br)c1Cl [Compound I-37, 2-[3-(3-Bromo-2,5-dichloro-phenoxy)-4-ethyl-phenyl]-N-(2-chloro-phenyl)-acetamide]
